In patent publication US20110158953A1, “TUMOR SUPPRESSION THROUGH PLEXIN C1” (UNIVERSITY OF ROCHESTER, priority 2008, published 2011):
“Also recorded” adds a separate entry of the source.

Experiments:
[1] = test system: Plexin C1; assay: Plexin C1 protein expression in human melanoma cell lines treated with DNA methylation inhibitor (Western blot); format: cell-based; conditions: 5 days; for Change in Plexin C1 protein: 3 μM
Protocol: Results are representative of 2 separate experiments.
Promotor hypermethylation plays a major role in transcriptional silencing of tumor suppressor genes in cancer and in melanoma (Dahl and Guldberg, 2007; Gronbaek et al., 2007; Rothhammer and Bosserhoff, 2007). To determine if Plexin C1 expression is regulated by DNA hypermethylation, melanoma cells were treated for 5 days with the DNA methylation inhibitor 5-Aza-2′-Deoxycytidine (5-Aza2Dc; 3 μM). Total cell lysates were then blotted for Plexin C1. […] But, a dose of 1.0 μM was the lowest dose that stimulated Plexin C1 expression in the YURIF and WW165 cell lines (FIG. 1C).
Neonatal foreskins were obtained according to the University of Rochester Research Subjects Review Board guidelines and were the source of cultured human melanocytes. Human melanocytes were cultured in MCDB 153 supplemented with 0.5% fetal bovine serum (FBS), bovine pituitary extract (15 μg/ml), phorbol ester (10 nM), basic fibroblast growth factor (1 ng/ml), insulin (5 μg/ml) and hydrocortisone (500 ng/ml). All supplements were purchased from Sigma Co, except FBS, which was purchased from Mediatech (Manassas, Va.). The following human melanoma cell lines were purchased from the Yale University Cell Core Facility: WW165, YURIF, YUSIK, YUMAC, and were maintained in Opti-MEM+5% FBS, except WW165 which was maintained in Opti-MEM+5% FBS and IBMX 0.1 mM. The C32 and WM115 human melanoma cell lines were obtained from American Type Culture Collection (Manassas Va.) and were maintained in Eagle Minimal Essential Media (MEM)+10% FBS and 1 mM sodium pyruvate. The WM115 and WW 165 cell lines were derived from melanomas primary to the skin; the other cell lines were derived from metastatic melanoma.
For Western blotting, cells were lysed in RIPA buffer (150 mM NaCl, 1% NP-40, 0.5% DOC, 0.1% SDS, 50 mM Tris-HCl) with protease inhibitors (Boehringer Mannheim, Gmbt, Germany) and phosphatase inhibitors (Gbiosciences, St. Louis, Mo.) and protein was quantified using bovine serum albumen (BSA) as standard (Bio-Rad Laboratories, Hercules, Calif.). Visualization of the immunoreactive proteins was accomplished with an enhanced chemiluminescence reaction (Pierce Chemical, Rockford, Ill.). For analysis of cell surface Sema7A expression in melanoma cell lines by flow cytometry, cells were placed in suspension in PBS/1% BSA and stained with FITC-conjugated antibodies against Sema7A for 30 minutes at room temperature. Negative controls consisted of cells incubated with FITC-conjugated IgM. After washing in PBS, cells were re-suspended in 0.5% formalin in PBS/1% BSA and analyzed using a FACS Caliber Machine (Becton Dickenson) at the flow cytometry core facility at the University of Rochester.

[2] = test system: Erk1/Erk2; assay: Sema7A-stimulated MAP kinase activation (P-Erk1/Erk2) in human melanocytes (Western blot); format: cell-based; conditions: PD 98059 10 μM one hour prior to Sema7A 25 ng/ml for 5 minutes
Protocol: Total cell lysates were resolved on 10% SDS-PAGE and blotted for phosphorylated Erk1/Erk2; the blot was stripped and re-blotted for total Erk1/Erk2. […] Results are representative of 2 separate experiments. The specificity of MAP kinase activation was tested in melanocytes by the inclusion of the selective p42/44 MAP kinase inhibitor PD 98059 (10 μM) in cells treated with Sema7A (25 ng/ml) for 5 minutes (FIG. 4D). Shown are cell lyates resolved on SDS-PAGE and blotted for P-Erk1/Erk2. The blot was stripped and reblotted for total Erk1/Erk2. As expected, Sema7A stimulated phosphorylation of Erk1/Erk2 within 5 minutes of treatment. […] Results are representative of 2 separate experiments. […]
For Western blotting, cells were lysed in RIPA buffer (150 mM NaCl, 1% NP-40, 0.5% DOC, 0.1% SDS, 50 mM Tris-HCl) with protease inhibitors (Boehringer Mannheim, Gmbt, Germany) and phosphatase inhibitors (Gbiosciences, St. Louis, Mo.) and protein was quantified using bovine serum albumen (BSA) as standard (Bio-Rad Laboratories, Hercules, Calif.). […] After washing in PBS, cells were re-suspended in 0.5% formalin in PBS/1% BSA and analyzed using a FACS Caliber Machine (Becton Dickenson) at the flow cytometry core facility at the University of Rochester.

## Nc1ncn([C@H]2C[C@H](O)[C@@H](CO)O2)c(=O)n1 [5-Aza2Dc, 5-Aza-2′-Deoxycytidine]
[1]; C32 melanoma cells
  Change in Plexin C1 protein: no change
[1]; WM115 melanoma cells
  Change in Plexin C1 protein: no change
[1]; WW165 cells, dose response 0.1 μM to 3.0 μM
  Lowest dose that stimulated Plexin C1 expression: 1.0 µM
[1]; WW165 melanoma cells
  Change in Plexin C1 protein: reduction
[1]; WW165 melanoma cells, listed as 5-AzaDc
  Change in Plexin C1 protein: decrease
[1]; YUMAC cells, dose response 0.1 μM to 3.0 μM
  Dose sufficient to increase Plexin C1 expression: 0.1 µM
[1]; YUMAC melanoma cells
  Change in Plexin C1 protein: increase
[1]; YURIF cells, dose response 0.1 μM to 3.0 μM
  Lowest dose that stimulated Plexin C1 expression: 1.0 µM
[1]; YURIF melanoma cells
  Change in Plexin C1 protein: reduction
[1]; YURIF melanoma cells, listed as 5-AzaDc
  Change in Plexin C1 protein: decrease
[1]; YUSIK melanoma cells
  Change in Plexin C1 protein: no change

## COc1cccc(-c2cc(=O)c3ccccc3o2)c1N [PD 98059]
[2]
  Effect on Sema7A-induced Erk1/Erk2 phosphorylation: no induction; also recorded: inhibited
